Results reported in patent US20070021441A1 (priority 2003, published 2007).
Where two headings read alike, the source gives them in different places.

Test system: Pyricularia oryzae
Format: in vivo
Conditions: individual active compound, protective, inoculated next day, assessed after 6 days

| Structure (SMILES) | Efficacy in % of the untreated control (16 ppm in the spray liquor) | Efficacy in % of the untreated control (63 ppm in the spray liquor) |
| --- | --- | --- |
| CC1CCN(c2c(-c3c(F)cccc3Cl)c(Cl)nc3ncnn23)CC1 [A] | 35% | 61% |
| C[C@H](Nc1c(-c2c(F)cc(F)cc2F)c(Cl)nc2ncnn12)C(F)(F)F [B] | 48% | 61% |
| O=C1C2CC=CCC2C(=O)N1SC(Cl)(Cl)Cl (stereo not shown) [IIa, 2-trichloromethylsulfanyl-3a,4,7,7a-tetrahydroisoindole-1,3-dione] | 0% | 35% |
| O=C1c2ccccc2C(=O)N1SC(Cl)(Cl)Cl [IIb, 2-trichloromethylsulfanylisoindole-1,3-dione] | 0% | 8% |
| CC1CCN(c2c(-c3c(F)cc(F)cc3F)c(Cl)nc3ncnn23)CC1 [compound I, 5-chloro-7-(4-methylpiperidin-1-yl)-6-(2,4,6-trifluorophenyl)[1,2,4]triazolo[1,5-a]pyrimidine] | 21% | 48% |
